Assay results published in publication PMC12645583 (British journal of haematology, 2025).

Assays:
[1] = biological target: IRAK1 (Homo sapiens, UniProt P51617); assay: KINOMEscan kinase profiling, % inhibition at […]; format: binding
[2] = biological target: HCK (Homo sapiens, UniProt P08631); assay: SelectScreen Z-Lyte enzymatic kinase assay at ATP Km app; format: biochemical
[3] = biological target: BTK (Homo sapiens, UniProt Q06187); assay: as above; format: biochemical
BTK, sequence (Q06187 2-659): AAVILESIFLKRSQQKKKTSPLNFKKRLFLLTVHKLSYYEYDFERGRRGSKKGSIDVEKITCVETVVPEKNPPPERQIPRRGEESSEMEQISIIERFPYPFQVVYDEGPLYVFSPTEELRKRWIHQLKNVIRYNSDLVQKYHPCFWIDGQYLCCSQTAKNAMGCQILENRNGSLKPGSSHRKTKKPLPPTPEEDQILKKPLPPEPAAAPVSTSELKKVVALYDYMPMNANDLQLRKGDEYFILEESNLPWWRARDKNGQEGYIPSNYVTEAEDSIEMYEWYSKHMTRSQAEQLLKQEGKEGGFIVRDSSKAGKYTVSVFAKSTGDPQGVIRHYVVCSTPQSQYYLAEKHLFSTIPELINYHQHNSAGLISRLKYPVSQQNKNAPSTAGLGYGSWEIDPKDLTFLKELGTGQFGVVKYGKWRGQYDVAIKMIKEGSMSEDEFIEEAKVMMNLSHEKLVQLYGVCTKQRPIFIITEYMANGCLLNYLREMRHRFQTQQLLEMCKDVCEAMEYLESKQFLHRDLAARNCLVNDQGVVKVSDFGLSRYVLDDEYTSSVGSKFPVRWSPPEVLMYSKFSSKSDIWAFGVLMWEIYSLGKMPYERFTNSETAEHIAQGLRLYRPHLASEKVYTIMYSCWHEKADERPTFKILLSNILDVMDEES

HCK, sequence (P08631 2-526): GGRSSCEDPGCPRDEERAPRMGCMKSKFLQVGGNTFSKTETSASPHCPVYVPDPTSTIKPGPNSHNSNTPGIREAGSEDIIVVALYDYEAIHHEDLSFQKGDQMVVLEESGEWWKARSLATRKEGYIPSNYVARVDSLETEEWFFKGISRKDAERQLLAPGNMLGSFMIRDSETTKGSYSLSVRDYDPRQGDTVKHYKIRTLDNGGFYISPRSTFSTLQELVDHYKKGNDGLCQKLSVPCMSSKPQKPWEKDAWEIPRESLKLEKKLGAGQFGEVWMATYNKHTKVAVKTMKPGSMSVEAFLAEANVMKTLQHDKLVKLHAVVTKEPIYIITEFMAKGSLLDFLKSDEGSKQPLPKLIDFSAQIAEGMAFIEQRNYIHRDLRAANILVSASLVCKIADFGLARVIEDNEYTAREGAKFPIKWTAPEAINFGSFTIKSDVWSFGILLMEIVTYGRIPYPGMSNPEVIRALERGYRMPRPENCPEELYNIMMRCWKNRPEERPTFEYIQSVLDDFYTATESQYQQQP
IRAK1, sequence (P51617 whole entry): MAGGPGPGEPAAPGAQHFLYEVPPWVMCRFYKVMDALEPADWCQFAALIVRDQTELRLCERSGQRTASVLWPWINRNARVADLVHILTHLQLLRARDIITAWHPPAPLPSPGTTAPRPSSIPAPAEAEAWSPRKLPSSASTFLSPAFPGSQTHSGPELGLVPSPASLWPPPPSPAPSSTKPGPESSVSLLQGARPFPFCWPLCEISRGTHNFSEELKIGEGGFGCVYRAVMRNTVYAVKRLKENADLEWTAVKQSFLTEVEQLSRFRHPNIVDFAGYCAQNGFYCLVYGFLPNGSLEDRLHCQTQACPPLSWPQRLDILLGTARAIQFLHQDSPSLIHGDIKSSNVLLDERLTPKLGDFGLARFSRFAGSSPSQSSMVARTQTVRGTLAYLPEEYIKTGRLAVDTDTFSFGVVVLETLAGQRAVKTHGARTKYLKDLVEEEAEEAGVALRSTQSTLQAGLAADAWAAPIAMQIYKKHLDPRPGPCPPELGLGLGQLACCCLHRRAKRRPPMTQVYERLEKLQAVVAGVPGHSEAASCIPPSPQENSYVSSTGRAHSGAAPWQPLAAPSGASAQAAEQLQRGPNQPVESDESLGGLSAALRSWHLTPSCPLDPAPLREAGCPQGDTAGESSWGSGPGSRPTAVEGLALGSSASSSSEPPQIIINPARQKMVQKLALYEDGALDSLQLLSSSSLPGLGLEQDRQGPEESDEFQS

## C1=C/COCc2cc(ccc2OCCN2CCCC2)Nc2nccc(n2)-c2cccc(c2)COC/1 [pacritinib]
[1]
  %: 99.5%
[2]
  IC50: 528 nM
[3]
  IC50: 367 nM
